# Source: publication PMC3338416, “A Chemocentric Approach to the Identification of Cancer Targets” (PLoS ONE, 2012)
# Columns and labels:
# [1] = test system: HCT116 cells; test: High-throughput resazurin (Alamar blue) cytotoxicity / antiproliferative assay on tumor HCT116 cells; type: cell-based, human; conditions: for effect on proliferation of HCT116 cells: dose-response curves (Figure S4)
# Procedure: (§1) A colon adenocarcinoma (HCT116) and normal human lung fibroblast (MRC-5) cell lines were purchased from the American Type Culture Collection (ATCC, Manassas, VA). HCT116 cells were maintained in McCoy's 5a Modified Medium supplemented with 10% FBS, 100 units/ml penicillin, and 100 µg/ml streptomycin at 37°C in a humidified 5% CO2 incubator. Subculturing was done using 1∶5 ratio twice a week. MRC-5 cells were maintained in DMEM supplemented with 10% FBS, 100 units/ml penicillin, and 100 µg/ml streptomycin at 37°C in a humidified 5% CO2 incubator. Subculturing was done using 1∶3 ratio twice a week. A cell bank was established for the cell lines used during the differential toxicity screening campaign.
# The high-throughput in vitro assay for measuring toxicity and antiproliferative effects of small molecules was implemented as described earlier. Cell lines were grown in culture flasks to 90% confluences, then harvested in counted cell density and seeded into 384-well microtiter plates. Test compounds were then added in various concentrations (in 2% DMSO final concentration) and incubated with the cells in CO2 incubators at 37°C for 48 h. […] During this period, FBS content of the medium was decreased to avoid the masking effect of FBS on toxicity. Detection of viability is based on the reduction of resazurin (Alamar blue) by living cells, resulting in an increased fluorescent signal. For the transformation of the assay into a high-throughput format, a Beckman Biomek liquid handling system and a Wallac Victor plate reader were used. Protocols needed for handling the 384-well plates were established for both single-concentration screening and dose-response curve determination. A plate map was used for the validation of the assay on 384-well plates, which is suitable for the determination of dose-response curves for 16 compounds at the same time using 6 concentrations in triplicate. This experiment was run in parallel on 5 plates and repeated three times on different days. From the dose-response curves, IC50 values were determined and analyzed. […] Based on the established assay protocol, single-point screenings were done at 50 µM compound concentration in duplicate. Likewise, IC50 values were obtained from the toxicity dose-response curves from six compound concentrations in duplicate and calculated with Microcal Origin 5.0.
# [2] = test system: MRC-5 cells; test: High-throughput resazurin (Alamar blue) cytotoxicity / antiproliferative assay on normal MRC-5 cells; type: cell-based, human; conditions: dose-response curves (Figure S4)
# Procedure: as §1, with “A cell bank was established for the cell lines used during the differential toxicity screening campaign.” left out
# The high-throughput in vitro assay for measuring toxicity and antiproliferative effects of small molecules was implemented as described earlier. Cell lines were grown in culture flasks to 90% confluences, then harvested in counted cell density and seeded into 384-well microtiter plates. […] For the transformation of the assay into a high-throughput format, a Beckman Biomek liquid handling system and a Wallac Victor plate reader were used. […] From the dose-response curves, IC50 values were determined and analyzed. To test the reproducibility and robustness of the assay for high-throughput screening, Z′ factors (∼0.72) and S/B ratios (∼10) were determined and the respective plate-to-plate and day-to-day coefficients of variation found to be 5.0%, 2.7%, 1.7% and 5.6%. […]
# [3] = target: amine oxidase flavin-containing B enzyme (MAO-B); parameters: method as in PMID 19933261; conditions: reported in PubChem; cited from earlier work
# [4] = test system: colon HCT116 cell lines; parameters: method as in PMID 19933261; conditions: cited from earlier work
# [5] = test system: HCT116 cell lines; parameters: method as in PMID 21617858; conditions: read-out: IC50, growth of HCT116 cell lines; cited from earlier work
# [6] = test system: HCT116 cell; parameters: method as in PMID 19139018; conditions: cited from earlier work
smiles,measurement,setting,value
"C=CCNC1=C2C[C@@H](C)C[C@H](OC)[C@H](O)[C@@H](C)/C=C(\C)[C@H](OC(N)=O)[C@@H](OC)/C=C\C=C(/C)C(=O)NC(=CC1=O)C2=O [17AAG, 17-(allylamino)-17-demethoxygeldanamycin]",IC50,"[1]; 48 h incubation, dose-response, six concentrations in duplicate",200 nM
same,fold selectivity relative to the antiproliferative effect on MRC-5 cells,[1]; IC50(MRC-5)/IC50(HCT116),93 fold
same,effect on proliferation of HCT116 cells,[1],inhibited the proliferation of HCT116 cells in a dose dependent manner
same,effect on MRC-5 cells,[2],little or no effect
O=C1c2ccccc2-c2nc(-c3cccc([N+](=O)[O-])c3)nnc21 [NSC680350],IC50,[3],80 nM
same,pGI50 obtained in this work on HCT116 cell lines,[1],5.19
same,GI50,"[1]; dose-response curve, Figure S5, read-out: GI50 on HCT116 cell lines",6400 nM
same,pGI50 for colon HCT116 cell lines reported in PubChem,[4],4.64
"O=C(CCCCCCC(=O)Nc1ccccc1)NO [SAHA, suberoylanilide hydroxamic acid]",effect on proliferation of HCT116 cells,[1],inhibited the proliferation of HCT116 cells in a dose dependent manner
same,effect on MRC-5 cells,[2],little or no effect
CN(C)C/C=C/C(=O)Nc1cc2c(Nc3ccc(F)c(Cl)c3)ncnc2cc1O[C@H]1CCOC1 [afatinib],IC50,[5],1620 nM
O=C(c1ccc(OCCN2CCCCC2)cc1)c1c(-c2ccc(O)cc2)sc2cc(O)ccc12 [raloxifene],inhibition of HCT116 cell growth,[6],inhibit HCT116 cell growth in a dose-dependent manner
